Assay results: US20230147364A1, “PROPHYLACTIC OR THERAPEUTIC AGENT FOR RNA VIRUS-RELATED DISEASES” (priority 2020, published 2023)
Counter-ions that a name gives are not always drawn.

What was measured:
Sendai virus (SeV) [1] = assay: microbe, parasite or virus in culture; format: cell-based; conditions: for IC50: Respirovirus muris, read-out: IC50, infection rate of SeV
Ebola trVLP [2] = assay: microbe, parasite or virus in culture; conditions: Zaire ebolavirus, Huh-7, read-out: IC50, Ebola trVLP infection
Ebola trVLP [3] = tested on: Ebola trVLP
VSV-G = format: cell-based, vesicular stomatitis virus
Sendai virus (SeV) [4] = format: cell-based
[5] = tested on: VSVΔG-SARS2-S (pseudo-type VSV with SARS-CoV-2 spike protein); assay: microbe, parasite or virus in culture; format: cell-based; conditions: Vesicular stomatitis virus, Vero C1008, 20 h, read-out: IC50, VSVΔG-SARS2-S infection
SARS-CoV-2 = assay: microbe, parasite or virus in culture; format: cell-based; conditions: for IC50: Severe acute respiratory syndrome coronavirus 2, Vero C1008, read-out: IC50, infection rate of SARS-CoV-2
[6] = tested on: pseudo-typed VSV having a SARS-CoV spike protein (SARS-CoV-S); assay: microbe, parasite or virus in culture; format: cell-based; conditions: Vesicular stomatitis virus, Vero C1008, 20 h, read-out: IC50, infection with pseudo-typed VSV having SARS-CoV spike protein
For Score (number of EGFP-positive cells, value subjected to correction between batches) in this document: test concentration or dose not given here.

CC1=NS(=O)(=O)c2cc(Cl)ccc2N1 [Diazoxide] was tested, and the “Score (number of EGFP-positive cells, value subjected to correction between batches)” value (from here on “Score”) (Sendai virus (SeV) [1]) was 173.91.

For O=C(c1ccc(OCCN2CCCCC2)cc1)c1c(-c2ccc(O)cc2)sc2cc(O)ccc12 [Raloxifene, raloxifene], the IC50 (Ebola trVLP [2]) was 0.88 µM, the “effect on virus: Ebola virus” value (Ebola trVLP [3]) was “+” and the “infection-inhibiting activity versus cytotoxicity (cell viability)” value (Ebola trVLP [3]) was “significant dissociation between the infection-inhibiting activity and the cytotoxicity”. The “infection-inhibiting effect on VSV-G” value (VSV-G) was “no infection-inhibiting effect was observed”, the “effect on virus: Sendai virus” value (Sendai virus (SeV) [1]) was “+” and the IC50 (Sendai virus (SeV) [1]) was 4.3 µM. For the same molecule, the “amount of the EGFP mRNA” value (Sendai virus (SeV) [4]) was “significantly and markedly reduced”, the IC50 [5] was 3.9 µM and the “effect on virus: SARS-CoV-2” value (SARS-CoV-2) was “+”. For the same molecule, the IC50 (SARS-CoV-2) was 7.1 µM and the IC50 [6] was 4.1 µM.

With CC(C)(C)[C@]1(O)CCN2Cc3cccc4c3[C@H](c3ccccc3CC4)[C@@H]2C1.Cl [(+)-Butaclamol hydrochloride] the “Score” value (Sendai virus (SeV) [1]) was 226.08.

CSc1ccc2c(c1)N(CCC1CCCCN1C)c1ccccc1S2 (stereo not drawn) [Thioridazine hydrochloride] was tested, and the “Score” value (Sendai virus (SeV) [1]) was 217.78.

With CN(C)CCC=C1c2ccccc2CCc2ccccc21 [Amitriptyline hydrochloride] the “Score” value (Sendai virus (SeV) [1]) was 192.61.

CN(C)CCCN1c2ccccc2Sc2ccc(Cl)cc21 [Chlorpromazine hydrochloride] was tested, and the “Score” value (Sendai virus (SeV) [1]) was 75.36.

In the case of O=C(NCCO[N+](=O)[O-])c1cccnc1 [Nicorandil], the “Score” value (Sendai virus (SeV) [1]) is reported as 185.50.

With Nc1cc(N2CCCCC2)nc(N)[n+]1[O-] [Minoxidil] the “Score” value (Sendai virus (SeV) [1]) was 226.08.

In the case of CN(C)CCOc1ccc(/C(=C(/CCCl)c2ccccc2)c2ccccc2)cc1 [Toremifene, toremifene], the “antiviral activity against Ebola trVLP infection” value (Ebola trVLP [3]) is reported as “inhibit the Ebola trVLP infection”, the “effect on virus: Ebola virus” value (Ebola trVLP [3]) is reported as “+” and the “infection-inhibiting effect on VSV-G” value (VSV-G) is reported as “no infection-inhibiting effect was observed”. For the same molecule, the IC50 [5] was 5.3 µM, the “effect on virus: SARS-CoV-2” value (SARS-CoV-2) was “+” and the IC50 (SARS-CoV-2) was 10 µM. It also gave an IC50 [6] of 7.3 µM.

With OCCOCCN1CCN(C2=Nc3ccccc3Sc3ccccc32)CC1 [Quetiapine fumarate] the “Score” value (Sendai virus (SeV) [1]) was 133.33.

Ifenprodil tartrate was tested, and the “Score” value (Sendai virus (SeV) [1]) was 214.49.

For COc1ccccc1N1CCN(CC(O)COc2cccc3ccccc23)CC1 (stereo not drawn) [Naftopidil], the “Score” value (Sendai virus (SeV) [1]) was 214.49.

In the case of CC(CCc1ccc(O)cc1)NCCc1ccc(O)c(O)c1 (stereo not drawn) [Dobutamine hydrochloride], the “Score” value (Sendai virus (SeV) [1]) is reported as 69.56.

For CC1=C(CC(=O)O)c2cc(F)ccc2/C1=C\c1ccc([S+](C)[O-])cc1 (stereo not drawn) [Sulindac], the “Score” value (Sendai virus (SeV) [1]) was 127.53.

For CCc1ccc(CCOc2ccc(CC3SC(=O)NC3=O)cc2)nc1 (stereo not drawn) [Pioglitazone, pioglitazone], the “antiviral activity against Ebola trVLP infection” value (Ebola trVLP [3]) was “did not show significant antiviral activity”, the “effect on virus: Ebola virus” value (Ebola trVLP [3]) was “−” and the “Score” value (Sendai virus (SeV) [1]) was 173.91. The “effect on virus: Sendai virus” value (Sendai virus (SeV) [1]) was “+”, the IC50 (Sendai virus (SeV) [1]) was 4.9 µM and the “amount of the EGFP mRNA” value (Sendai virus (SeV) [4]) was “significantly and markedly reduced”. For the same molecule, the “antiviral activity against SARS-CoV-2 infection” value (SARS-CoV-2) was “partially suppressed virus infection at a high concentration” and the “effect on virus: SARS-CoV-2” value (SARS-CoV-2) was “+”.

In the case of CC(COc1ccccc1)N(CCCl)Cc1ccccc1 (stereo not drawn) [Phenoxybenzamine hydrochloride], the “Score” value (Sendai virus (SeV) [1]) is reported as 162.31.

In the case of O=C1CCc2ccc(OCCCCN3CCN(c4cccc(Cl)c4Cl)CC3)cc2N1 [Aripiprazole], the “Score” value (Sendai virus (SeV) [1]) is reported as 86.95.

For CNCCCC12CCC(c3ccccc31)c1ccccc12 [Maprotiline hydrochloride], the “Score” value (Sendai virus (SeV) [1]) was 191.30.

In the case of COc1cc(C(=O)NS(=O)(=O)c2ccccc2C)ccc1Cc1cn(C)c2ccc(NC(=O)OC3CCCC3)cc12 [Zafirlukast], the “Score” value (Sendai virus (SeV) [1]) is reported as 156.52.

For Cc1ccc(-c2cc(C(F)(F)F)nn2-c2ccc(S(N)(=O)=O)cc2)cc1 [Celecoxib], the “Score” value (Sendai virus (SeV) [1]) was 208.69.

For CCOC(=O)C1=C(C)NC(C)=C(C(=O)OC)C1c1cccc(Cl)c1Cl (stereo not drawn) [Felodipine], the “Score” value (Sendai virus (SeV) [1]) was 133.33.

For COc1ccc(Cl)cc1C(=O)NCCc1ccc(S(=O)(=O)NC(=O)NC2CCCCC2)cc1 [Glibenclamide], the “Score” value (Sendai virus (SeV) [1]) was 202.89.

CS(=O)(=O)c1ccc(C2=C(c3ccccc3)C(=O)OC2)cc1 [Rofecoxib] was tested, and the “Score” value (Sendai virus (SeV) [1]) was 202.89.

O=C(Nc1cccc2c(=O)cc(-c3nnn[nH]3)oc12)c1ccc(OCCCCc2ccccc2)cc1 [Pranlukast, pranlukast] was tested, and the “antiviral activity against Ebola trVLP infection” value (Ebola trVLP [3]) was “did not show significant antiviral activity”, the “effect on virus: Ebola virus” value (Ebola trVLP [3]) was “−” and the “Score” value (Sendai virus (SeV) [1]) was 162.31. The “effect on virus: Sendai virus” value (Sendai virus (SeV) [1]) was “+”, the IC50 (Sendai virus (SeV) [1]) was 5 µM and the “amount of the EGFP mRNA” value (Sendai virus (SeV) [4]) was “significantly and markedly reduced”. The “antiviral activity against SARS-CoV-2 infection” value (SARS-CoV-2) was “tended to reduce the infection rate of SARS-CoV-2, which was not significant” and the “effect on virus: SARS-CoV-2” value (SARS-CoV-2) was “N.S”.

CCC(CC)COC(=O)[C@H](C)N[P@](=O)(OC[C@H]1O[C@@](C#N)(c2ccc3c(N)ncnn23)[C@H](O)[C@@H]1O)Oc1ccccc1 [remdesivir] was tested, and the IC50 (Ebola trVLP [2]) was 0.12 µM, the IC50 (Sendai virus (SeV) [1]) was 0.077 µM and the “amount of the EGFP mRNA” value (Sendai virus (SeV) [4]) was “substantially not detected”. It also gave an IC50 (SARS-CoV-2) of 0.89 µM.

With CCN(CC)CCOc1ccc(/C(=C(/Cl)c2ccccc2)c2ccccc2)cc1 [Clomifene, clomifene] the “antiviral activity against Ebola trVLP infection” value (Ebola trVLP [3]) was “inhibit the Ebola trVLP infection”, the “effect on virus: Ebola virus” value (Ebola trVLP [3]) was “+” and the “infection-inhibiting effect on VSV-G” value (VSV-G) was “no infection-inhibiting effect was observed”. The “effect on virus: SARS-CoV-2” value (SARS-CoV-2) was “+”.

CO[C@H]1/C=C/O[C@@]2(C)Oc3c(C)c(O)c4c(O)c(c(/C=N/N5CCN(C)CC5)c(O)c4c3C2=O)NC(=O)/C(C)=C\C=C\[C@H](C)[C@H](O)[C@@H](C)[C@@H](O)[C@@H](C)[C@H](OC(C)=O)[C@@H]1C [Rifampin, rifampin] was tested, and the “antiviral activity against Ebola trVLP infection” value (Ebola trVLP [3]) was “did not show significant antiviral activity”, the “effect on virus: Ebola virus” value (Ebola trVLP [3]) was “−” and the “Score” value (Sendai virus (SeV) [1]) was 75.36. For the same molecule, the “effect on virus: Sendai virus” value (Sendai virus (SeV) [1]) was “+”, the IC50 (Sendai virus (SeV) [1]) was 3.9 µM and the “amount of the EGFP mRNA” value (Sendai virus (SeV) [4]) was “significantly and markedly reduced”. The “antiviral activity against SARS-CoV-2 infection” value (SARS-CoV-2) was “tended to reduce the infection rate of SARS-CoV-2, which was not significant” and the “effect on virus: SARS-CoV-2” value (SARS-CoV-2) was “N.S”.

In the case of CC(c1cc2ccccc2s1)N(O)C(N)=O (stereo not drawn) [Zileuton, zileuton], the “antiviral activity against Ebola trVLP infection” value (Ebola trVLP [3]) is reported as “did not show significant antiviral activity”, the “effect on virus: Ebola virus” value (Ebola trVLP [3]) is reported as “−” and the “Score” value (Sendai virus (SeV) [1]) is reported as 214.49. The “effect on virus: Sendai virus” value (Sendai virus (SeV) [1]) was “+”, the IC50 (Sendai virus (SeV) [1]) was 4.5 µM and the “amount of the EGFP mRNA” value (Sendai virus (SeV) [4]) was “significantly and markedly reduced”. The “antiviral activity against SARS-CoV-2 infection” value (SARS-CoV-2) was “did not exhibit significant antiviral activity” and the “effect on virus: SARS-CoV-2” value (SARS-CoV-2) was “−”.

With COc1ccc(CN(CCN(C)C)c2ccccn2)cc1 [Pyrilamine maleate] the “Score” value (Sendai virus (SeV) [1]) was 185.50.

In the case of O=c1[nH]c2ccccc2n1CCCN1CCC(n2c(=O)[nH]c3cc(Cl)ccc32)CC1 [Domperidone], the “Score” value (Sendai virus (SeV) [1]) is reported as 139.13.

O=C(O)COCCN1CCN(C(c2ccccc2)c2ccc(Cl)cc2)CC1 (stereo not drawn) [Cetirizine dihydrochloride] was tested, and the “Score” value (Sendai virus (SeV) [1]) was 202.89.

CCCCC[C@H](O)/C=C/[C@H]1[C@H](O)CC(=O)[C@@H]1C/C=C\CCCC(=O)O [Prostaglandin E2] was tested, and the “Score” value (Sendai virus (SeV) [1]) was 208.69.

For CC(CN1c2ccccc2Sc2ccccc21)N(C)C (stereo not drawn) [Promethazine hydrochloride], the “Score” value (Sendai virus (SeV) [1]) was 231.88.

O=C(c1ccc(OCCN2CCCCC2)cc1)c1c(-c2ccc(O)cc2)sc2cc(O)ccc12 [Raloxifene hydrochloride] was tested, and the “Score” value (Sendai virus (SeV) [1]) was 57.97.

CC/C(=C(\c1ccccc1)c1ccc(OCCN(C)C)cc1)c1ccccc1 [Tamoxifen, tamoxifen] was tested, and the “antiviral activity against Ebola trVLP infection” value (Ebola trVLP [3]) was “inhibit the Ebola trVLP infection”, the “effect on virus: Ebola virus” value (Ebola trVLP [3]) was “+” and the “effect on virus: SARS-CoV-2” value (SARS-CoV-2) was “+”.
